In ChEMBL document CHEMBL3132812, “Metabolism-guided drug design” (Medchemcomm, 2013):
Values belong to the molecule of their own block, whether it stands above or below them.

How the values were obtained:
[1] = Lipophilicity, log D of the compound at pH 7.4; format: physicochemical; details: buffer
[2] = biological target: Trypsin (Homo sapiens, UniProt P07477+P07478+P35030); experiment: Inhibition of trypsin (unknown origin); format: protein assay
[3] = biological target: Prothrombin (Homo sapiens, UniProt P00734); experiment: Inhibition of thrombin (unknown origin)
[4] = Drug metabolism in rat liver microsomes assessed as oxidative deamination; format: ADME; details: read-out: Drug metabolism
[5] = Drug metabolism in rat liver microsomes assessed as O-demethylation; format: ADME; details: read-out: Drug metabolism
[6] = Drug metabolism in rat liver microsomes assessed as N-demethylation; format: ADME; details: read-out: Drug metabolism
[7] = Half life in monkey; format: ADME, organism-based, Macaca mulatta; details: rhesus monkey, in vivo
[8] = system: Homo sapiens; experiment: In vivo inhibition of CYP2D6 in patient assessed as inhibition of dextromethorphan to dextrorphan conversion at 20 to 40 mg, qd relative to control; format: ADME, organism-based
[9] = Drug metabolism in human; format: ADME, organism-based; details: in vivo, read-out: Drug metabolism
[10] = system: Homo sapiens; experiment: In vivo inhibition of CYP2D6 in patient at 20 mg, qd relative to control; format: ADME, organism-based
[11] = Half life in rat; format: ADME, organism-based; details: in vivo
[12] = Half life in human plasma at 600 mg, po; format: ADME, organism-based

IC50 [2]: 252 nM
Compound: Cc1cnc(NCC(F)(F)c2ccccn2)c(=O)n1CC(=O)NCc1ncccc1F

IC50 [2]: 213 nM
IC50 [3]: 2.3 nM
Compound: N#Cc1cnc(NCC(F)(F)c2ccccn2)c(=O)n1CC(=O)NCc1ncccc1F

IC50 [2]: 800 nM
Compound: Cc1nc(N)ccc1CNC(=O)Cn1c(C)cnc(NCC(F)(F)c2ccccn2)c1=O

IC50 [2]: 1800 nM
IC50 [3]: 0.8 nM
Compound: Cc1nc(N)ccc1CNC(=O)Cn1c(C)cnc(NCCc2ccccc2)c1=O [L-375378]

Further lines, the molecule ahead of its results:

Compound: CNS(=O)(=O)Cc1ccc2[nH]cc(CCN(C)C)c2c1
logD [1]: -1.7

Compound: COc1ccc([C@H]2Cc3c(cccc3C(F)(F)F)N(CCN(C)C)C(=O)[C@H]2OC(C)=O)cc1
metabolised [4]: 53%
metabolised [5]: 8%
metabolised [6]: 31%

Compound: CC(c1ccoc1)N(O)C(N)=O (stereo not drawn)
half-life [7]: 3.1 h

Compound: [3H]C1([3H])Oc2ccc(OC[C@@H]3CNCC[C@H]3c3ccc(F)cc3)cc2O1
inhibition (INH) [8]: 15%

Compound: [3H]C([3H])([3H])Oc1ccc(C(CN(C([3H])([3H])[3H])C([3H])([3H])[3H])C2(O)CCCCC2)cc1 (stereo not drawn)
metabolised [9]: 50%

Compound: C[C@H](C#Cc1ccc(Oc2ccc(F)cc2)o1)N(O)C(N)=O
half-life [7]: 7.4 h

Compound: Fc1ccc([C@@H]2CCNC[C@H]2COc2ccc3c(c2)OCO3)cc1 [PAROXETINE]
inhibition (INH) [10]: 55%

Compound: CS(=O)(=O)c1ccc(-n2nc(C(F)(F)F)cc2-c2ccc(F)cc2)cc1 [SC-58125]
half-life [11]: > 220 h

Compound: CC(c1cc2ccccc2s1)N(O)C(N)=O (stereo not drawn) [ZILEUTON]
half-life [12]: 3 h
half-life [7]: < 1 h
